Where only a bound is given, the exact number is not on record here.

Chain of PI 3-kinase beta (P42338 whole entry): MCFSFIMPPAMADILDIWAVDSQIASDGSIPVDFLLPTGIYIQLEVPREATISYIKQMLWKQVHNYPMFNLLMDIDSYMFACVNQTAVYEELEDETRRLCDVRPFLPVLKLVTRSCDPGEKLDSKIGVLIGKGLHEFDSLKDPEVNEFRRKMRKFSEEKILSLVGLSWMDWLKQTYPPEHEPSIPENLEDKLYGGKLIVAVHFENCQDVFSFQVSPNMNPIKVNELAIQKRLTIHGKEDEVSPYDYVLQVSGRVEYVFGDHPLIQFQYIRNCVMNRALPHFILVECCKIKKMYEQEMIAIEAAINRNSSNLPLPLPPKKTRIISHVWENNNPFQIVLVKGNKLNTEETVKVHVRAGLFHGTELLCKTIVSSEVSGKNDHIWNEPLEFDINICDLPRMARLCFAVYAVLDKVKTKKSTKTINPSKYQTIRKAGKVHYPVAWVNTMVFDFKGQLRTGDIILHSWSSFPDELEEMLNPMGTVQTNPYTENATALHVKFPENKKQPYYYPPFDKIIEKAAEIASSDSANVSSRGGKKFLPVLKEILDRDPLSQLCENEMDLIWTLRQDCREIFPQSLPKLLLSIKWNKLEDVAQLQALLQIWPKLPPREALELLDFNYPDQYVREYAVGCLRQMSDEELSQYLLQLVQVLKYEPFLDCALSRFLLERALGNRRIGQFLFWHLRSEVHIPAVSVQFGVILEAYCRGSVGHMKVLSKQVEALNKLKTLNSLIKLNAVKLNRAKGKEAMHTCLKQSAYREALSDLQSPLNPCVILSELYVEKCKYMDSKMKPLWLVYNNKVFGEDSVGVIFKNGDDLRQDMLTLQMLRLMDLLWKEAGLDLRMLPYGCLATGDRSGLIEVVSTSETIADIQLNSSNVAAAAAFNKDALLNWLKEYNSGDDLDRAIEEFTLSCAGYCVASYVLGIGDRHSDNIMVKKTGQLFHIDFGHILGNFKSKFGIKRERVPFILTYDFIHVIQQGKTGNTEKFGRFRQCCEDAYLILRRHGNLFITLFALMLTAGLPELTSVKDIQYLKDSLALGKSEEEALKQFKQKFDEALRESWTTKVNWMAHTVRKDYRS
Chain of PI 3-kinase beta (Q63787 whole entry partner): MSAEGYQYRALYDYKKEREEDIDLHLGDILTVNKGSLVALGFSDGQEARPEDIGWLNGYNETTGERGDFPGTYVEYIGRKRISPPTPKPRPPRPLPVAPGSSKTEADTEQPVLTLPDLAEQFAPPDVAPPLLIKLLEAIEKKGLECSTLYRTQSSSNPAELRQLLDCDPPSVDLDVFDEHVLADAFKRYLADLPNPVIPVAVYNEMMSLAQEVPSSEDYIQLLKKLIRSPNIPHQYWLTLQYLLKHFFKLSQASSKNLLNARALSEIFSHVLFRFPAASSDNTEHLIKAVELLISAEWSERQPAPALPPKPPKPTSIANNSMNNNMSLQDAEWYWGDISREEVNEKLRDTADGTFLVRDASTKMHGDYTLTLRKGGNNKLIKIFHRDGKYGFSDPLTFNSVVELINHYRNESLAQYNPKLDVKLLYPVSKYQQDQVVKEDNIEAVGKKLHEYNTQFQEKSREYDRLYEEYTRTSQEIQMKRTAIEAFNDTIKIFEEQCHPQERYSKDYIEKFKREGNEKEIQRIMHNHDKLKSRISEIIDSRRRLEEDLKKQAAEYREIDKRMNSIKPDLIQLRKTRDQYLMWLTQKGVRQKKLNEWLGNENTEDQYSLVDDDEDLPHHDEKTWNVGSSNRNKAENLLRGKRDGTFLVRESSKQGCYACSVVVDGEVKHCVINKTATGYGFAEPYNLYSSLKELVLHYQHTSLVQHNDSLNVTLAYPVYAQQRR

The experiment addresses PI 3-kinase beta (Homo sapiens (Human), UniProt P42338). The experiment can be described thus: Cellular p-Akt (S473) SureFire assay, Rat-1_PI3Kbeta cells (Assay I). Type of experiment: cell-based. To be noted: p-AKT (Ser473) in Rat-1 cells expressing myr-HA-hp110 beta, 1 h compound; read-out: Assay I PI3Kβ IC50. An excerpt: Cellular Assays for PI 3-Kinase Alpha (H), Beta (I) and Delta (J)
AlphaScreen (Amplified Luminescent Proximity Homogeneous Assay, ALPHA, Perkin Elmer) is a non-radioactive bead-based proximity assay technology to study biomolecular interactions in a homogenous microtiter plate format. The brand name SureFire denotes AlphaScreen assays that are adapted to quantify the phosphorylation of endogenous cellular proteins in cell lysates, by using matched antibody pairs, which consist of an anti-phospho-kinase and an anti-kinase antibody. The assay allows characterization of kinase signaling in cells as well as measurement of kinase inhibitor effects.
Rat-1 cell lines stably overexpressing activated PI 3-kinase class I isoforms Rat-1 pBABEpuro Myr-HA-hp110 delta clone 5 (Rat-1_PI3Kdelta) and Rat-1 pBABEpuro Myr-HA-hp110 alpha clone 6 (Rat-1_PI3Kalpha) and Rat-1 pBABEpuro Myr-HA-hp110 beta (Rat-1_PI3beta) were cultivated in complete growth medium (DMEM high glucose, 10% (v/v) fetal bovine serum, 1% (v/v) MEM NEAA, 10 mM HEPES, 2 mM L-glutamine, puromycin (10 μg/mL for Rat-1_PI3Kdelta and Rat-1_PI3Kalpha, 4 ug/mL for Rat-1_PI3beta), 1% (v/v) Pen/Strep) to 90% confluency at 37° C./5% CO2/90% humidity in a humidified CO2 incubator and were split twice a week. The following materials were used for p-AKT(5473) detection in Rat-1 cell lysates: Dulbecco's modified Eagle's medium (DMEM) high glucose (Gibco Invitrogen, Basel, Switzerland, Cat. No. 41965), heat inactivated fetal bovine serum, qualified (HI FBS; Gibco Invitrogen, Basel, Switzerland, Lot. No. 16140), MEM non essential amino acids (NEAA; Gibco Invitrogen, Basel, Switzerland, Cat. No. 11140), HEPES (Gibco Invitrogen, Basel, Switzerland, Cat. No. 15630), penicillin/streptomycin (Pen/Strep, 100×; Gibco Invitrogen, Basel, Switzerland, Cat. No. 15140-122), L-glutamine (Gibco Invitrogen, Basel, Switzerland, Cat. No. 25030), puromycin (Sigma Aldrich, Buchs, Switzerland, Cat. No. P9620), DMSO (MERCK, Dietikon, Switzerland, Cat. No. 8.02912.2500), H2O, MilliQ-H2O unless otherwise stated (MILLIPORE QGARDOOR1, Millipore, Zug, Switzerland), bovine serum albumine (BSA; Sigma Aldrich, Buchs, Switzerland Cat. No. A8412), SureFire p-Akt 1/2 (Ser473) Assay Kit (Perkin Elmer, Schwerzenbach, Switzerland, Cat. No. TGRAS50K).
The p-Akt (S473) SureFire assay measures the phosphorylation of endogenous cellular Akt 1/2 at Ser473 in cell lysates. Using Rat-1 cells stably expressing myr-HA-tagged versions of the human PI3Kdelta, PI3Kalpha, or PI3Kbeta p110 catalytic subunit isoforms, the assay was developed as a two-plate protocol in a 384-well format.
For compound testing, the cells were seeded at a density of 4000 (Rat-1_PI3Kdelta), 7500 (Rat-1_PI3Kalpha), or 6200 (Rat-1_PI3Kbeta) cells in 20 μl complete growth medium into cell culture treated 384-well plates and were grown at 37° C./5% CO2/90% humidity for 24 h. Shortly before compound transfer, the complete medium was removed, 30 μl assay buffer (DMEM high glucose, 1×MEM NEAA, 10 mM HEPES, 2 mM L-glutamine, 0.1% (w/v) BSA) was added and 10 μl of the compound predilutions were transferred to the cells. After treatment with compound for 1 h, the cells were lysed by the addition of 20 μl lysis buffer supplemented with 0.24% (w/v) BSA. Detection of p-AKT (Ser473) was performed with the SureFire p-Akt 1/2 (Ser473) Assay Kit according to the manufacturer's instructions using 5 ul of cell lysate in a total detection volume of 12 μl.
IC50 values of the percentage inhibition of each compound at 8 concentrations (usually 10, 3.0, 1.0, 0.3, 0.1, 0.030, 0.010 and 0.003 μM) n=2 were derived by fitting a sigmoidal dose-response curve to a plot of assay readout over inhibitor concentration as described. All fits were performed with the program XLfit4 (ID Business Solutions, Guildford, UK).
By IC50 is commonly meant the concentration that gives 50% inhibition. Consider `Cc1ccc(S(=O)(=O)NCC2(C)COC2)cc1-c1cncc(-c2cn(C)nc2C)n1` [Example 4, Trans 3-[6-(1,3-Dimethyl-1H-pyrazol-4-yl)-pyrazin-2-yl]-4-methyl-N-(3-methyl-oxetan-3-ylmethyl)-benzenesulfonamide], for which the IC50 worked out at 0.833 µM.
`Cc1ccc(S(=O)(=O)NCCC(C)(C)O)cc1-c1cncc(-c2cn(CCN3CCOCC3)nc2C)n1` [Example 10, N-(3-Hydroxy-3-methyl-butyl)-4-methyl-3-{6-[3-methyl-1-(2-morpholin-4-yl-ethyl)-1H-pyrazol-4-yl]-pyrazin-2-yl}-benzenesulfonamide]: the IC50 came out at 3.83 µM.
For `Cc1ccc(S(=O)(=O)N[C@H]2CC[C@H](O)CC2)cc1-c1cncc(-c2cccnc2)n1` [Example 11, Trans N-(4-Hydroxy-cyclohexyl)-4-methyl-3-(6-pyridin-3-yl-pyrazin-2-yl)-benzenesulfonamide], the IC50 was over 10 µM.
Consider `Cc1ccc(S(=O)(=O)NCCC(C)(C)O)cc1-c1cncc(-c2cn(C)nc2C)n1` [Example 3, 3-[6-(1,3-Dimethyl-1H-pyrazol-4-yl)-pyrazin-2-yl]-N-(3-hydroxy-3-methyl-butyl)-4-methyl-benzenesulfonamide], for which the IC50 stood at 3.18 µM.
In the case of `Cc1ncc(-c2cncc(-c3cc(S(=O)(=O)N[C@H]4CC[C@H](O)CC4)ccc3C)n2)s1` [Example 5, Trans N-(4-Hydroxycyclohexyl)-4-methyl-3-(6-(2-methylthiazol-5-yl)pyrazin-2-yl)benzenesulfonamide], the IC50 is 9.42 µM.
With `Cc1ccc(S(=O)(=O)NCC(C)(C)O)cc1-c1cncc(-c2cn(C)nc2C)n1` [Example 2, 3-[6-(1,3-Dimethyl-1H-pyrazol-4-yl)-pyrazin-2-yl]-N-(2-hydroxy-2-methyl-propyl)-4-methyl-benzenesulfonamide], the IC50 is 0.784 µM.
Turning to `Cc1ccc(S(=O)(=O)NCCC(C)(C)O)cc1-c1cncc(-c2cnn(CCN3CCOCC3)c2)n1` [Example 9, N-(3-Hydroxy-3-methyl-butyl)-4-methyl-3-{6-[1-(2-morpholin-4-yl-ethyl)-1H-pyrazol-4-yl]-pyrazin-2-yl}-benzenesulfonamide], the IC50 is 6.98 µM.

The record behind these values is patent US9862711B2, “Pyrazine derivatives as phosphatidylinositol 3-kinase inhibitors” (NOVARTIS AG, priority 2014, dated 2018).
